Assays:
Assay type in all cases: in vivo
[1] = test system: velvetleaf (Abutilon theophrasti); test: Test G Post-Emergence Protocol; settings: Abutilon theophrasti, post-emergence, 312 h, read-out: Velvetleaf damage rating; for pest or weed control at 15.625 g/ha: 15.625 g ai/ha, evaluated after 13 days (100=total damage to plant; 0=no damage to plant); for pest or weed control at 62.5 g/ha: 62.5 g ai/ha; for pest or weed control at 62.5 g/ha / pest or weed control at 250 g/ha: evaluated after 13 days, 100=total damage to plant, 0=no damage to plant; for pest or weed control at 250 g/ha: 250 g ai/ha
Outline: (§1)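 Pot-grown seedlings, 8 days old, raised in a glasshouse at 24/16 °C day/night with 14 h light and 65% humidity, were sprayed post-emergence with test compound in acetone/water (50:50) plus 0.5% Tween 20 at 15.625, 62.5 or 250 g/ha. Damage was scored visually 13 days later on a 0–100 scale (100 = total damage).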

[2] = test system: redroot pigweed (Amaranthus retroflexus); test: Test G Post-Emergence Protocol; settings: Amaranthus retroflexus, post-emergence, 312 h, read-out: Pigweed, Redroot damage rating; for pest or weed control at 15.625 g/ha: 15.625 g ai/ha, evaluated after 13 days (100=total damage to plant; 0=no damage to plant); for pest or weed control at 62.5 g/ha: 62.5 g ai/ha; for pest or weed control at 62.5 g/ha / pest or weed control at 250 g/ha: evaluated after 13 days, 100=total damage to plant, 0=no damage to plant; for pest or weed control at 250 g/ha: 250 g ai/ha
Outline: as §1

[3] = test system: giant foxtail (Setaria faberi); test: Test G Post-Emergence Protocol; settings: Setaria faberi, post-emergence, 312 h, read-out: Foxtail, Giant damage rating; for pest or weed control at 15.625 g/ha: 15.625 g ai/ha, evaluated after 13 days (100=total damage to plant; 0=no damage to plant); for pest or weed control at 62.5 g/ha: 62.5 g ai/ha; for pest or weed control at 62.5 g/ha / pest or weed control at 250 g/ha: evaluated after 13 days, 100=total damage to plant, 0=no damage to plant; for pest or weed control at 250 g/ha: 250 g ai/ha
Outline: as §1

corn (Zea mays) [4] = test: Test G Post-Emergence Protocol; settings: Zea mays, post-emergence, 312 h, read-out: Corn damage rating; for plant injury at 15.625 g/ha: 15.625 g ai/ha, evaluated after 13 days (100=total damage to plant; 0=no damage to plant); for plant injury at 62.5 g/ha: 62.5 g ai/ha; for plant injury at 62.5 g/ha / plant injury at 250 g/ha: evaluated after 13 days, 100=total damage to plant, 0=no damage to plant; for plant injury at 250 g/ha: 250 g ai/ha
Outline: as §1

[5] = test system: ivy-leaved morning glory (Ipomoea hederacea); test: Test G Post-Emergence Protocol; settings: Ipomoea, post-emergence, 312 h, read-out: Morningglory, Ivy-leaved damage rating; for pest or weed control at 15.625 g/ha: 15.625 g ai/ha, evaluated after 13 days (100=total damage to plant; 0=no damage to plant); for pest or weed control at 62.5 g/ha: 62.5 g ai/ha; for pest or weed control at 62.5 g/ha / pest or weed control at 250 g/ha: evaluated after 13 days, 100=total damage to plant, 0=no damage to plant; for pest or weed control at 250 g/ha: 250 g ai/ha
Outline: as §1

[6] = test system: barnyardgrass (Echinochloa crus-galli); test: Test G Post-Emergence Protocol; settings: Echinochloa crus-galli, post-emergence, 312 h, read-out: Barnyardgrass damage rating; for pest or weed control at 15.625 g/ha: 15.625 g ai/ha, evaluated after 13 days (100=total damage to plant; 0=no damage to plant); for pest or weed control at 62.5 g/ha: 62.5 g ai/ha; for pest or weed control at 62.5 g/ha / pest or weed control at 250 g/ha: evaluated after 13 days, 100=total damage to plant, 0=no damage to plant; for pest or weed control at 250 g/ha: 250 g ai/ha
Outline: as §1

[7] = test system: velvetleaf (Abutilon theophrasti); test: Test G Pre-Emergence Protocol; settings: Abutilon theophrasti, pre-emergence, 312 h, evaluated after 13 days; for pest or weed control at 15.625 g/ha: 15.625 g ai/ha; for pest or weed control at 15.625 g/ha / pest or weed control at 250 g/ha: read-out: Velvetleaf damage rating (100=total damage to plant; 0=no damage to plant); for pest or weed control at 62.5 g/ha: 62.5 g ai/ha, 100=total damage to plant, 0=no damage to plant, read-out: Velvetleaf damage rating; for pest or weed control at 250 g/ha: 250 g ai/ha
Outline: (§2)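 Visual injury (0–100) at day 13 after a single pre-emergence spray. Rates: 15.625, 62.5, 250 g/ha in acetone–water 50:50 with 0.5% Tween 20. Growth conditions: 24/16° C, 14 h light, 65% humidity.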

[8] = test system: redroot pigweed (Amaranthus retroflexus); test: Test G Pre-Emergence Protocol; settings: Amaranthus retroflexus, pre-emergence, 312 h, evaluated after 13 days; for pest or weed control at 15.625 g/ha: 15.625 g ai/ha; for pest or weed control at 15.625 g/ha / pest or weed control at 250 g/ha: read-out: Pigweed, Redroot damage rating (100=total damage to plant; 0=no damage to plant); for pest or weed control at 62.5 g/ha: 62.5 g ai/ha, 100=total damage to plant, 0=no damage to plant, read-out: Pigweed, Redroot damage rating; for pest or weed control at 250 g/ha: 250 g ai/ha
Outline: as §2

[9] = test system: giant foxtail (Setaria faberi); test: Test G Pre-Emergence Protocol; settings: Setaria faberi, pre-emergence, 312 h, evaluated after 13 days; for pest or weed control at 15.625 g/ha: 15.625 g ai/ha; for pest or weed control at 15.625 g/ha / pest or weed control at 250 g/ha: read-out: Foxtail, Giant damage rating (100=total damage to plant; 0=no damage to plant); for pest or weed control at 62.5 g/ha: 62.5 g ai/ha, 100=total damage to plant, 0=no damage to plant, read-out: Foxtail, Giant damage rating; for pest or weed control at 250 g/ha: 250 g ai/ha
Outline: as §2

corn (Zea mays) [10] = test: Test G Pre-Emergence Protocol; settings: Zea mays, pre-emergence, 312 h, evaluated after 13 days; for plant injury at 15.625 g/ha: 15.625 g ai/ha; for plant injury at 15.625 g/ha / plant injury at 250 g/ha: read-out: Corn damage rating (100=total damage to plant; 0=no damage to plant); for plant injury at 62.5 g/ha: 62.5 g ai/ha, 100=total damage to plant, 0=no damage to plant, read-out: Corn damage rating; for plant injury at 250 g/ha: 250 g ai/ha
Outline: as §2

[11] = test system: ivy-leaved morning glory (Ipomoea hederacea); test: Test G Pre-Emergence Protocol; settings: Ipomoea, pre-emergence, 312 h, evaluated after 13 days; for pest or weed control at 15.625 g/ha: 15.625 g ai/ha; for pest or weed control at 15.625 g/ha / pest or weed control at 250 g/ha: read-out: Morningglory, Ivy-leaved damage rating (100=total damage to plant; 0=no damage to plant); for pest or weed control at 62.5 g/ha: 62.5 g ai/ha, 100=total damage to plant, 0=no damage to plant, read-out: Morningglory, Ivy-leaved damage rating; for pest or weed control at 250 g/ha: 250 g ai/ha
Outline: as §2

[12] = test system: barnyardgrass (Echinochloa crus-galli); test: Test G Pre-Emergence Protocol; settings: Echinochloa crus-galli, pre-emergence, 312 h, evaluated after 13 days; for pest or weed control at 15.625 g/ha: 15.625 g ai/ha; for pest or weed control at 15.625 g/ha / pest or weed control at 250 g/ha: read-out: Barnyardgrass damage rating (100=total damage to plant; 0=no damage to plant); for pest or weed control at 62.5 g/ha: 62.5 g ai/ha, 100=total damage to plant, 0=no damage to plant, read-out: Barnyardgrass damage rating; for pest or weed control at 250 g/ha: 250 g ai/ha
Outline: as §2

Row | Structure (SMILES) | pest or weed control at 15.625 g/ha [1] | pest or weed control at 62.5 g/ha [1] | pest or weed control at 250 g/ha [1] | pest or weed control at 15.625 g/ha [2] | pest or weed control at 62.5 g/ha [2] | pest or weed control at 250 g/ha [2] | pest or weed control at 15.625 g/ha [3] | pest or weed control at 62.5 g/ha [3] | pest or weed control at 250 g/ha [3] | plant injury at 15.625 g/ha (corn (Zea mays) [4]) | plant injury at 62.5 g/ha (corn (Zea mays) [4]) | plant injury at 250 g/ha (corn (Zea mays) [4]) | pest or weed control at 15.625 g/ha [5] | pest or weed control at 62.5 g/ha [5] | pest or weed control at 250 g/ha [5] | pest or weed control at 15.625 g/ha [6] | pest or weed control at 62.5 g/ha [6] | pest or weed control at 250 g/ha [6] | pest or weed control at 15.625 g/ha [7] | pest or weed control at 62.5 g/ha [7] | further results
1 | CN1C[C@H](c2cccc(C(F)(F)F)c2)[C@@H](C(=O)Nc2cccnc2F)C1=O (racemic) [Compound 1809] | 0% | 0% | 40% | 20% | 20% | 50% | 80% | 80% | 80% | 80% | 80% | 80% | 20% | 70% | 70% | 80% | 80% | 80% | 0% | 0% | pest or weed control at 250 g/ha [7]: 50%; pest or weed control at 15.625 g/ha [8]: 0%; pest or weed control at 62.5 g/ha [8]: 0%; pest or weed control at 250 g/ha [8]: 60%; pest or weed control at 15.625 g/ha [9]: 90%; pest or weed control at 62.5 g/ha [9]: 90%; pest or weed control at 250 g/ha [9]: 90%; plant injury at 15.625 g/ha (corn (Zea mays) [10]): 60%; plant injury at 62.5 g/ha (corn (Zea mays) [10]): 80%; plant injury at 250 g/ha (corn (Zea mays) [10]): 90%; pest or weed control at 15.625 g/ha [11]: 10%; pest or weed control at 62.5 g/ha [11]: 70%; pest or weed control at 250 g/ha [11]: 80%; pest or weed control at 15.625 g/ha [12]: 90%; pest or weed control at 62.5 g/ha [12]: 80%; pest or weed control at 250 g/ha [12]: 90%
2 | CN1C[C@H](c2cccc(C(F)(F)F)c2)[C@@H](C(=O)Nc2cc(O)ccc2F)C1=O (racemic) [Compound 1807] | 0% | 0% | 0% | 0% | 0% | 0% | 0% | 0% | 0% | 0% | 0% | 0% | 0% | 0% | 0% | 0% | 0% | 0% | 0% | 0% | pest or weed control at 250 g/ha [7]: 0%; pest or weed control at 15.625 g/ha [8]: 0%; pest or weed control at 62.5 g/ha [8]: 0%; pest or weed control at 250 g/ha [8]: 0%; pest or weed control at 15.625 g/ha [9]: 0%; pest or weed control at 62.5 g/ha [9]: 0%; pest or weed control at 250 g/ha [9]: 0%; plant injury at 15.625 g/ha (corn (Zea mays) [10]): 0%; plant injury at 62.5 g/ha (corn (Zea mays) [10]): 0%; plant injury at 250 g/ha (corn (Zea mays) [10]): 0%; pest or weed control at 15.625 g/ha [11]: 0%; pest or weed control at 62.5 g/ha [11]: 0%; pest or weed control at 250 g/ha [11]: 0%; pest or weed control at 15.625 g/ha [12]: 0%; pest or weed control at 62.5 g/ha [12]: 0%; pest or weed control at 250 g/ha [12]: 0%
3 | CON1C[C@H](c2ccc(C(F)(F)F)cc2)[C@@H](C(=O)Nc2cccc(F)c2F)C1=O (racemic) [Compound 1836] | 10% | 20% | 50% | 20% | 60% | 70% | 50% | 70% | 70% | 0% | 10% | 70% | 20% | 20% | 40% | 0% | 70% | 80% | 0% | 0% | pest or weed control at 250 g/ha [7]: 30%; pest or weed control at 15.625 g/ha [8]: 0%; pest or weed control at 62.5 g/ha [8]: 50%; pest or weed control at 250 g/ha [8]: 50%; pest or weed control at 15.625 g/ha [9]: 50%; pest or weed control at 62.5 g/ha [9]: 80%; pest or weed control at 250 g/ha [9]: 90%; plant injury at 15.625 g/ha (corn (Zea mays) [10]): 10%; plant injury at 62.5 g/ha (corn (Zea mays) [10]): 10%; plant injury at 250 g/ha (corn (Zea mays) [10]): 80%; pest or weed control at 15.625 g/ha [11]: 10%; pest or weed control at 62.5 g/ha [11]: 20%; pest or weed control at 250 g/ha [11]: 30%; pest or weed control at 15.625 g/ha [12]: 10%; pest or weed control at 62.5 g/ha [12]: 70%; pest or weed control at 250 g/ha [12]: 80%
